According to US20060276537A1, “Use of ladostigil for the treatment of multiple sclerosis” (priority 2005, published 2006):
Marks after values point to notes of the source that are not given here.

Assays:
Assay type in all cases: in vivo
[1] = Body weight of the EAE mice (Table 7)
Text: These differences were statistically significant (p<0.000, Manova). According to the subsequent Post Hoc comparison (LSD), all the groups were different from the control (Table 7). […] On day 14, four days after the onset of the disease, sick mice lost an average of 2 g of weight. The average mean weight of GA-blocked mice was reduced by only 0.4 g. On day 23 the control group reached the lowest weight, 14.6 g.

[2] = tested on: acetylcholinesterase (AChE); test: Cholinesterase assay (modified Ellman, ATC substrate) in brain and blood of treated EAE mice; details: for Blood AChE U/ml / Blood AchE % inhibition: blood of EAE mice; for Brain AChE U/g (Total ChE) / Brain AchE % inhibition: brain of EAE mice
Procedure: From the mice of Example 2, acetylcholinesterase (AChE) and butyrylcholinesterase (BChE) activities were determined by a modification of Ellman's spectophotometric method using acetyltiocholine (ATC) and butyryltiocholine (BTC) as substrates.
Homogenate of 100 mg brain tissue in 1 ml 100 mM phosphate buffer pH=8.0 was prepared. 0.4 ml of crude homogenate was added to 1.2 ml pre-warmed 4 mM 5,5′-Dithiobis(2-nitrobenzoic acid) (DTNB or Ellman's reagant); 30 μl from this mixture were added to 210 μl pre-warmed (28° C.) 50 mM phosphate buffer in a microplate; and the reaction was started by addition of 10 μl ATC or BTC (final concentration=1 mM) or water (for the blank reaction) The increase in optical density (OD) at 412 nm was monitored for 3 minutes and the slope of the straight line obtained by linear regression provided the activity in terms of ΔOD/min using SOFTMAX® software. Blank reaction was subtracted.
Conversion of ΔOD/min into Enzyme Activity was Performed as Follows: Unit enzyme/gram tissue=OD/min*0.25/10.54*4*1000/30*11
The same procedure was performed as with brain homogenate using 50 μl of ¼ hemolysate/DTNB mixture.
Enzyme activity in the blood was calculated in units/1 ml whole blood.
AChE activity was calculated as follows: AChE activity=ΔOD/min (determined with ATC)−ΔOD/min (determined with BTC)/0.7
0.7=BChE activity on BTC/BChE activity on ATC. It was determined by using 1.25-10^−6M BW281C51 to inhibit AChE and with ATC and BTC as substrates.

MAO-A = target: T1, MAO-A (Mus musculus, UniProt Q64133); test: MAO assay (14C 5-HT substrate) in brains of treated EAE mice
T1 construct: in the brains of EAE mice; from tissue; host or cells: brain homogenate of ladostigil-treated EAE mice
T1 sequence (Q64133 1-526): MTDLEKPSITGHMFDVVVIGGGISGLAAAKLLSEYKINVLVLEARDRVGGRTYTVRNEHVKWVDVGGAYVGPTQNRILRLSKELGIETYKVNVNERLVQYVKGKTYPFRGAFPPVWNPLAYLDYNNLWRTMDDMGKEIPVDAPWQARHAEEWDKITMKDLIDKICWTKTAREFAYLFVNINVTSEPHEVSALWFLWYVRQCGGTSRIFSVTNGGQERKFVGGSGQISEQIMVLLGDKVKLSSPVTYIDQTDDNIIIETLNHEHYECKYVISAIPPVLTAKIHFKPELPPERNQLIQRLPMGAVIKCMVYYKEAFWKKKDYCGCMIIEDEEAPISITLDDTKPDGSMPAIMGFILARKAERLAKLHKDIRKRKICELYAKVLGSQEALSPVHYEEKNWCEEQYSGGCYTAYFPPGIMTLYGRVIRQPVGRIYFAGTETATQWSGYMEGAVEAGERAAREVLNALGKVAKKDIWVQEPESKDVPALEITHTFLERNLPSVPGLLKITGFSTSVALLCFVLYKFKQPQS
Procedure: From the mice of Example 2, the level of MAO (MAO-A and MAO-B) inhibition was determined using ^14C-Labeled 2-phenylethylamine and 5-hydroxytryptamine as substrates.
The MAO enzyme obtained from a homogenate of rat brain in 0.3M sucrose, which was centrifuged at 600 g for 15 minutes. The supernatant is diluted appropriately in 0.05M phosphate buffer, and pre-incubated with serial dilutions of test compounds for 20 minutes at 37° C. ^14C-Labeled substrates (2-phenylethylamine, hereinafter PEA; 5-hydroxytryptamine, hereinafter 5-HT) are then added, and the incubation continued for a further 20 minutes (PEA), or 30-45 minutes (5-HT). Substrate concentrations used are 50 μM (PEA) and 1 mM (5-HT). In the case of PEA, enzyme concentration is chosen so that not more than 10% of the substrate is metabolized during the course of the reaction. Deaminated products are extracted into toluene-ethyl acetate (1:1 v/v) containing 0.6% (w/v) 2,5-diphenyloxazole (ppo) prior to determination by liquid scintillation counting. Radioactivity in the eluate indicates the production of neutral and acidic metabolites formed as a result of MAO activity. Activity of MAO in the sample is expressed as a percentage of control activity in the absence of inhibitors after subtraction of appropriate blank values. The activity determined using PEA as substrate is referred to as MAO-B, and that determined using 5-HT as MAO-A. Concentrations of inhibitor producing 50% inhibition of substrate metabolism (IC50) are calculated from the inhibition curves.

[3] = 51 and 70.1 mg/kg/day, doses effective in ameliorating EAE

C#CCN[C@@H]1CCc2ccc(OC(=O)N(C)CC)cc21 [Ladostigil, R(+)-6-(N-methyl,N-ethyl-carbamoyloxy)-N′-propargyl-1-aminoindan]
Weight of EAE mice ([1]; day 2 after induction, ladostigil salt 10.2 mg/kg gavage daily): 18.1 ± 1.0 g
Weight of EAE mice ([1]; day 2 after induction, ladostigil salt 25.5 mg/kg gavage daily): 18.2 ± 0.8 g
Weight of EAE mice ([1]; day 2 after induction, ladostigil salt 51 mg/kg gavage daily): 18.2 ± 0.9 g
Weight of EAE mice ([1]; day 2 after induction, ladostigil salt 70.1 mg/kg gavage daily): 18.5 ± 0.8 g
Weight of EAE mice ([1]; day 14 after induction, ladostigil salt 10.2 mg/kg gavage daily): 16.0 ± 1.7 g
Weight of EAE mice ([1]; day 14 after induction, ladostigil salt 25.5 mg/kg gavage daily): 15.9 ± 1.7 g
Weight of EAE mice ([1]; day 14 after induction, ladostigil salt 51 mg/kg gavage daily): 15.6 ± 1.6 g
Weight of EAE mice ([1]; day 14 after induction, ladostigil salt 70.1 mg/kg gavage daily): 15.9 ± 1.4 g
Weight of EAE mice ([1]; day 30 after induction, ladostigil salt 10.2 mg/kg gavage daily): 17.6 ± 2.5 g
Weight of EAE mice ([1]; day 30 after induction, ladostigil salt 25.5 mg/kg gavage daily): 17.8 ± 1.4 g
Weight of EAE mice ([1]; day 42 after induction, ladostigil salt 10.2 mg/kg gavage daily): 17.5 ± 2.9 g
Weight of EAE mice ([1]; day 42 after induction, ladostigil salt 25.5 mg/kg gavage daily): 17.6 ± 1.7 g
Weight compared with positive control ([1]; highest dose of ladostigil, day 30): comparable with the positive control
inhibition of AChE in blood [2, 3]: 60-65%
inhibition of AChE in brain [2, 3]: 47-52%
Blood AChE U/ml ([2]; 10.2 mg/kg salt): 0.85 +/− 0.17 U/ml
Blood AchE % inhibition ([2]; 10.2 mg/kg salt): 37.4* %
Blood AChE U/ml ([2]; 25.5 mg/kg salt): 0.73 +/− 0.12 U/ml
Blood AchE % inhibition ([2]; 25.5 mg/kg salt): 46.3* %
Blood AChE U/ml ([2]; 51 mg/kg salt): 0.54 +/− 0.1 U/ml
Blood AchE % inhibition ([2]; 51 mg/kg salt): 60.2* %
Blood AChE U/ml ([2]; 70.1 mg/kg salt): 0.48 +/− 0.1 U/ml
Blood AchE % inhibition ([2]; 70.1 mg/kg salt): 64.9* %
Brain AChE U/g (Total ChE) ([2]; 10.2 mg/kg salt): 8.77 +/− 1.23 U/g
Brain AchE % inhibition ([2]; 10.2 mg/kg salt): 13.4%
Brain AChE U/g (Total ChE) ([2]; 25.5 mg/kg salt): 7.42 +/− 1.29 U/g
Brain AchE % inhibition ([2]; 25.5 mg/kg salt): 26.8* %
Brain AChE U/g (Total ChE) ([2]; 51 mg/kg salt): 5.41 +/− 0.6 U/g
Brain AchE % inhibition ([2]; 51 mg/kg salt): 46.6* %
Brain AChE U/g (Total ChE) ([2]; 70.1 mg/kg salt): 4.85 +/− 0.65 U/g
Brain AchE % inhibition ([2]; 70.1 mg/kg salt): 52.2* %
MAO-A inhibition (MAO-A; 51 and 70.1 mg/kg/day, brain): 55-60%
MAO-A activity dpm (MAO-A; brain of EAE mice, 10.2 mg/kg): 3702 +/− 119 dpm
MAO-A activity dpm (MAO-A; brain of EAE mice, 25.5 mg/kg): 2672 +/− 128 dpm
MAO-A activity dpm (MAO-A; brain of EAE mice, 51 mg/kg): 1822 +/− 115 dpm
MAO-A activity dpm (MAO-A; brain of EAE mice, 70.1 mg/kg): 1621 +/− 158 dpm
inhibition at 10.2 mg/kg (MAO-A; mouse, brain of EAE mice, 10.2 mg/kg): 9%
inhibition at 25.5 mg/kg (MAO-A; mouse, brain of EAE mice, 25.5 mg/kg): 34%
inhibition at 51 mg/kg (MAO-A; mouse, brain of EAE mice, 51 mg/kg): 55%
inhibition at 70.1 mg/kg (MAO-A; mouse, brain of EAE mice, 70.1 mg/kg): 60%
